Data on 26 molecules can be found in patent US20240182445A1 (ONO PHARMACEUTICAL CO., LTD., priority 2019, published 2024).

Usually IC50 stands for the concentration at which inhibition is half-maximal. For orientation: inhibition means the relative decrease from the control value, in per cent.

The first assay deals with T1, human TREK-1 (Homo sapiens, UniProt O95069).
T1 construct: expressed in transfected cells
T1 sequence (O95069 1-426): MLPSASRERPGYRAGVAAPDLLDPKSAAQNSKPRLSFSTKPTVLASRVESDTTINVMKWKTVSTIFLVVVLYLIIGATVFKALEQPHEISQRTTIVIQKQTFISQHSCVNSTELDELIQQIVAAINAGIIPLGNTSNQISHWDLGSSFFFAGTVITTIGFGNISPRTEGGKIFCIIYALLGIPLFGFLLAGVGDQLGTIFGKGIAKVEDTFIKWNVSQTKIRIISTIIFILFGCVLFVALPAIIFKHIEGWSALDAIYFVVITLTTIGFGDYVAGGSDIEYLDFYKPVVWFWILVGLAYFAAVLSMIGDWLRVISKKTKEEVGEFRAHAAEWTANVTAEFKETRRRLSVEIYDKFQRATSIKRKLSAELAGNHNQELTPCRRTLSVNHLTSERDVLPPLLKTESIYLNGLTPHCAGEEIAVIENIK
The assay is described as follows: TREK-1 Thallium (Tl+) flux assay, Method 1. The class given is cell-based. The note with it: TREK-1 Thallium (Tl+) flux assay, Method 1. The procedure, abridged:
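CHO-K1 cells stably expressing human TREK-1, loaded with Thallos dye, received compound or 0.3% DMSO vehicle for 10 min before thallium stimulus buffer. ΔRatio is fluorescence at 25 s after thallium addition over mean pre-addition fluorescence; % inhibition calculated from it.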
In turn, `Cc1cc(OCc2ccccc2)ccc1NC(=O)c1c(Cl)cnn1C1CC2(C1)CN(C(=O)C1CC1)C2` [Compound 406, N-(4-(benzyloxy)-2-methylphenyl)-4-chloro-1-(2-(cyclopropanecarbonyl)-2-azaspiro[3.3]heptan-6-yl)-1H-pyrazole-5-carboxamide] had an IC50 of 2540 nM.

The assay is the same for the next values; noted with them: TREK-1 Thallium (Tl+) flux assay; no *^12 (Method 2) mark on these rows.
In turn, `Cc1cc(C#Cc2ccccc2)cnc1NC(=O)c1c(Cl)cnn1CC1CCCO1` (centres unmarked) [Compound 345, 4-chloro-N-(3-methyl-5-(phenylethynyl)pyridin-2-yl)-1-((tetrahydrofuran-2-yl)methyl)-1H-pyrazole-5-carboxamide] returned a 50% inhibitory concentration (IC50) of 770 nM.
The same measure, in the same setting: then `N#CC1CC(n2ncc(Cl)c2C(=O)Nc2c(F)cc(C#Cc3ccccc3)cc2F)C1` (centres unmarked) [Compound 245, 4-chloro-1-(3-cyanocyclobutyl)-N-(2,6-difluoro-4-(phenylethynyl)phenyl)-1H-pyrazole-5-carboxamide], with 390 nM.
In the case of `Cc1cc(C#Cc2ccc(F)cc2)cnc1NC(=O)c1c(Cl)cnn1C1CC2(CCN(C(=O)C3CC3)C2)C1` (single isomer, unassigned) [Compound 363, 4-chloro-1-[(2s,4r)-6-(cyclopropanecarbonyl)-6-azaspiro[3.4]octan-2-yl]-N-{5-[(4-fluorophenyl)ethynyl]-3-methylpyridin-2-yl}-1H-pyrazole-5-carboxamide or 4-chloro-1-[(2r,4s)-6-(cyclopropanecarbonyl)-6-azaspiro[3.4]octan-2-yl]-N-{5-[(4-fluorophenyl)ethynyl]-3-methylpyridin-2-yl}-1H-pyrazole-5-carboxamide], half-maximal inhibition (IC50) was put at 910 nM.
In turn, `Cc1cc(C#Cc2ccccc2)cnc1NC(=O)c1c(Cl)cnn1C1CCN(C(=O)C(F)(F)F)CC1` [Compound 268, 4-chloro-N-[3-methyl-5-(2-phenylethynyl)-2-pyridyl]-2-[1-(2,2,2-trifluoroacetyl)-4-piperidyl]pyrazole-3-carboxamide] yielded an IC50 of 450 nM.
`Cc1cc(C#Cc2ccccc2)cnc1NC(=O)c1c(Cl)cnn1CC1CCOC1` (centres unmarked) [Compound 232, 4-chloro-N-(3-methyl-5-(phenylethynyl)pyridin-2-yl)-1-((tetrahydrofuran-3-yl)methyl)-1H-pyrazole-5-carboxamide]: the IC50 turned out to be 360 nM.
The molecule `Cc1cc(-c2cnn(-c3ccc(F)cc3)c2)cnc1NC(=O)c1c(Cl)cnn1C[C@@H]1CCOC1` [Compound 379, (S)-4-chloro-N-(5-(1-(4-fluorophenyl)-1H-pyrazol-4-yl)-3-methylpyridin-2-yl)-1-((tetrahydrofuran-3-yl)methyl)-1H-pyrazole-5-carboxamide] displayed an IC50 of 320 nM.
Still for that read-out and setting: the result for `Cc1cc(C#Cc2ccccc2F)cnc1NC(=O)c1c(Cl)cnn1CCC1CCN(C(=O)C2CC2)CC1` [Compound 226, 4-chloro-1-(2-(1-(cyclopropanecarbonyl)piperidin-4-yl)ethyl)-N-(5-((2-fluorophenyl)ethynyl)-3-methylpyridin-2-yl)-1H-pyrazole-5-carboxamide] reads 350 nM; that for `Cc1cc(C#Cc2ccccc2)cnc1NC(=O)c1c(Cl)cnn1[C@H]1C[C@H](NC(=O)OC(C)(C)C)C1` [Compound 292, tert-butyl (trans-3-(4-chloro-5-((3-methyl-5-(phenylethynyl)pyridin-2-yl)carbamoyl)-1H-pyrazol-1-yl)cyclobutyl)carbamate], 520 nM.
The same measure, in the same setting: the result for `CC(C)(C)OC(=O)N1CCCC(Cn2ncc(Cl)c2C(=O)Nc2ncc(C#Cc3ccccc3)cc2F)C1` (centres unmarked) [Compound 365, tert-butyl 3-((4-chloro-5-((3-fluoro-5-(phenylethynyl)pyridin-2-yl)carbamoyl)-1H-pyrazol-1-yl)methyl)piperidine-1-carboxylate] reads 920 nM; that for `CC(C)(C)OC(=O)N1CC[C@H](n2ncc(Cl)c2C(=O)Nc2ncc(C#Cc3ccccc3)cc2F)C1` [Compound 315, tert-butyl (S)-3-(4-chloro-5-((3-fluoro-5-(phenylethynyl)pyridin-2-yl)carbamoyl)-1H-pyrazol-1-yl)pyrrolidine-1-carboxylate], 600 nM; that for `Cc1cc(C#Cc2ccc(F)cc2)cnc1NC(=O)c1c(Cl)cnn1CC1CN(C(=O)C2CCC2)CCO1` (centres unmarked) [Compound 367, 4-chloro-1-((4-(cyclobutanecarbonyl)morpholin-2-yl)methyl)-N-(5-((4-fluorophenyl)ethynyl)-3-methylpyridin-2-yl)-1H-pyrazole-5-carboxamide], 940 nM.

Still in this assay, the particulars now being: TREK-1 Thallium (Tl+) flux assay; values without footnote *12 are Method 1.
For `Cc1cc(C#Cc2ccc(F)cc2)cnc1NC(=O)c1c(Cl)cnn1CC1(C#N)CCN(C(=O)C(C)C)CC1` [Compound 119, 4-chloro-1-((4-cyano-1-isobutyrylpiperidin-4-yl)methyl)-N-(5-((4-fluorophenyl)ethynyl)-3-methylpyridin-2-yl)-1H-pyrazole-5-carboxamide], inhibition was half-maximal at 200 nM (IC50).
In turn, `CC(=O)N1CCCC(n2ncc(Cl)c2C(=O)Nc2ncc(C#Cc3ccccc3)cc2C)CC1` (centres unmarked) [Compound 131, 1-(1-acetylazepan-4-yl)-4-chloro-N-(3-methyl-5-(phenylethynyl)pyridin-2-yl)-1H-pyrazole-5-carboxamide] registered a concentration for half-maximal inhibition (IC50) of 220 nM.
Same read-out and setting: the result for `N#CCCCn1ncc(Cl)c1C(=O)Nc1ncc(C#Cc2ccccc2)cc1F` [Compound 59, 4-chloro-1-(3-cyanopropyl)-N-(3-fluoro-5-(phenylethynyl)pyridin-2-yl)-1H-pyrazole-5-carboxamide] reads 150 nM; that for `CC(=O)N1CCC(CCn2ncc(Cl)c2C(=O)Nc2ncc(C#Cc3cccc(F)c3)cc2C)CC1` [Compound 133, 1-(2-(1-acetylpiperidin-4-yl)ethyl)-4-chloro-N-(5-((3-fluorophenyl)ethynyl)-3-methylpyridin-2-yl)-1H-pyrazole-5-carboxamide], 220 nM.
For the molecule `CC(=O)N1CC[C@@H](Cn2ncc(Cl)c2C(=O)Nc2ncc(C#Cc3ccccc3)cc2F)[C@H](F)C1` [Compound 178, 1-(((3S,4S)-1-acetyl-3-fluoropiperidin-4-yl)methyl)-4-chloro-N-(3-fluoro-5-(phenylethynyl)pyridin-2-yl)-1H-pyrazole-5-carboxamide], the IC50 was found to be 270 nM. This IC50 and that of the molecule before are within 1.5-fold of each other.
Still for that read-out and setting: the result for `Cc1cc(C#Cc2ccccc2)cnc1NC(=O)c1c(Cl)cnn1C1CCN(C(=O)C2COCCO2)C1` (centres unmarked) [Compound 80, 1-(1-(1,4-dioxane-2-carbonyl)pyrrolidin-3-yl)-4-chloro-N-(3-methyl-5-(phenylethynyl)pyridin-2-yl)-1H-pyrazole-5-carboxamide] reads 160 nM; that for `CC(=O)N1CCC(Cn2ncc(Cl)c2C(=O)Nc2ncc(C#Cc3cccc(F)c3)cc2C)CC1` [Compound 150, 1-((1-acetylpiperidin-4-yl)methyl)-4-chloro-N-(5-((3-fluorophenyl)ethynyl)-3-methylpyridin-2-yl)-1H-pyrazole-5-carboxamide], 240 nM; that for `Cc1cc(C#Cc2ccccc2)cc(F)c1NC(=O)c1c(Cl)cnn1CC1(C#N)CC1` [Compound 127, 4-chloro-1-((1-cyanocyclopropyl)methyl)-N-(2-fluoro-6-methyl-4-(phenylethynyl)phenyl)-1H-pyrazole-5-carboxamide], 220 nM.
With `CCNC(=O)N1C[C@H]2C[C@H](n3ncc(Cl)c3C(=O)Nc3ncc(C#Cc4cccc(F)c4)cc3C)C[C@H]2C1` [Compound 132, (3aR,5s,6aS)-5-[4-chloro-5-({5-[(3-fluorophenyl)ethynyl]-3-methylpyridin-2-yl}carbamoyl)-1H-pyrazol-1-yl]-N-ethylhexahydrocyclopenta[c]pyrrole-2(1H)-carboxamide], half-maximal inhibition (IC50) required 220 nM.
Molecule `CC(=O)N1CC(n2ncc(Cl)c2C(=O)Nc2ncc(C#Cc3ccccc3)cc2F)C1` [Compound 40, 1-(1-acetylazetidin-3-yl)-4-chloro-N-(3-fluoro-5-(phenylethynyl)pyridin-2-yl)-1H-pyrazole-5-carboxamide] displayed an IC50 of 130 nM. Compared with the last molecule, the IC50 is about 1.7-fold lower.
Consider `CC(C)C(=O)N1CCOC(Cn2ncc(Cl)c2C(=O)Nc2ncc(C#Cc3ccccc3)cc2F)C1` (centres unmarked) [Compound 145, 4-chloro-N-(3-fluoro-5-(phenylethynyl)pyridin-2-yl)-1-((4-isobutyrylmorpholin-2-yl)methyl)-1H-pyrazole-5-carboxamide], for which the concentration for half-maximal inhibition (IC50) was 230 nM.
For `Cc1cc(C#Cc2cccc(F)c2)cnc1NC(=O)c1c(Cl)cnn1C1CCN(C(=O)C(C)C)CC1` [Compound 152, 4-chloro-N-(5-((3-fluorophenyl)ethynyl)-3-methylpyridin-2-yl)-1-(1-isobutyrylpiperidin-4-yl)-1H-pyrazole-5-carboxamide], the half-inhibitory concentration (IC50) was determined as 240 nM. The IC50 values of the last two molecules are within 1.5-fold of each other.

The assay is the same for the next values; noted with them: read-out: Tl^+ Assay % inhibition at 30 uM (Minus value indicates activation of TREK-1); at 30 uM; CHO-K1 cells stably expressing human TREK-1; minus = activation.
For the molecule `Cc1cc(C#Cc2cccc(F)c2)cnc1NC(=O)c1nn(CCC2CCN(C(=O)C3CC3)CC2)cc1Cl` [Compound 450, 4-chloro-1-(2-(1-(cyclopropanecarbonyl)piperidin-4-yl)ethyl)-N-(5-((3-fluorophenyl)ethynyl)-3-methylpyridin-2-yl)-1H-pyrazole-3-carboxamide], the inhibition at 30 µM was -94%.
Take `Cc1cc(C#Cc2ccc(F)cc2)cnc1NC(=O)c1nn(CCC2CCN(C(=O)C3CC3)CC2)cc1Cl` [Compound 451, 4-chloro-1-(2-(1-(cyclopropanecarbonyl)piperidin-4-yl)ethyl)-N-(5-((4-fluorophenyl)ethynyl)-3-methylpyridin-2-yl)-1H-pyrazole-3-carboxamide]: the inhibition at 30 µM was -79%.
